Measured values from patent US11420958B2, “Aryl and heteroaryl substituted indole compounds” (BRISTOL-MYERS SQUIBB COMPANY, priority 2017, dated 2022).

Legend:
Assay type in all cases: cell-based
human TLR9 = human TLR9 (Homo sapiens (Human), UniProt Q9NR96); experiment: TLR9 inhibition reporter assay (HEK-Blue, SEAP); conditions: HEK-Blue cells overexpressing human TLR9, ODN2006 5 nM stimulation
Method in brief: (§1)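 HEK-Blue cells expressing human TLR7, TLR8 or TLR9 with NF-κB/AP-1-driven SEAP reporter; compounds 0.05 nM–50 μM, 30 min pre-treatment at room temperature. Stimulated with gardiquimod 7.5 μM (TLR7), R848 15.9 μM (TLR8) or ODN2006 5 nM (TLR9), 22 h at 37 °C; % inhibition of SEAP signal relative to agonist+DMSO and known-inhibitor wells.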

human TLR8 = human TLR8 (Homo sapiens (Human), UniProt Q9NR97); experiment: TLR8 inhibition reporter assay (HEK-Blue, SEAP); conditions: HEK-Blue cells overexpressing human TLR8, R848 15.9 μM stimulation
Sequence of human TLR8 (Q9NR97 27-1041): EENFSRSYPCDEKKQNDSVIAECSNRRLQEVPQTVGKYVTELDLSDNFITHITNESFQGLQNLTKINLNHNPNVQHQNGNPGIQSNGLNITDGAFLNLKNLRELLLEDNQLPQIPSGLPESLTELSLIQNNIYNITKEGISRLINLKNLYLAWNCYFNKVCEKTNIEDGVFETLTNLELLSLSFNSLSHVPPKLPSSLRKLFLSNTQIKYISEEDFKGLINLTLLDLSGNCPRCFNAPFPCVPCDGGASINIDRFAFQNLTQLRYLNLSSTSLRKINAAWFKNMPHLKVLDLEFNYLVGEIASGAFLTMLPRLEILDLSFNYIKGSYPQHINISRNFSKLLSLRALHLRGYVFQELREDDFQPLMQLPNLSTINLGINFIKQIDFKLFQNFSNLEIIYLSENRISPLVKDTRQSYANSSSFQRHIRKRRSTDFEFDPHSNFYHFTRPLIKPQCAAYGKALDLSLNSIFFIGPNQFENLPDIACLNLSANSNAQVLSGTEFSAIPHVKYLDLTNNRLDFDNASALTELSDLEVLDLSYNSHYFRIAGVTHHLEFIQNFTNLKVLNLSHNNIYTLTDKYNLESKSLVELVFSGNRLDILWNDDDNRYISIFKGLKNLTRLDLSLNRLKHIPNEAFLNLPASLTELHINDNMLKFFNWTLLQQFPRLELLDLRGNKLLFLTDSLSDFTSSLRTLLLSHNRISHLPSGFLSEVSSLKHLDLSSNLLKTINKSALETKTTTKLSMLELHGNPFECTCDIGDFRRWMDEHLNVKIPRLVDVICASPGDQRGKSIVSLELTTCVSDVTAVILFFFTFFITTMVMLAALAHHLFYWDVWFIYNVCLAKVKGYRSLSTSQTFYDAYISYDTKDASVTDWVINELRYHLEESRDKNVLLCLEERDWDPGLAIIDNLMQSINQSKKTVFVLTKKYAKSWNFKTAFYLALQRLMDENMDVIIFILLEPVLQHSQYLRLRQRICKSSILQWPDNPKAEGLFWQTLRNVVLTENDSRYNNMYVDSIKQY
Method in brief: as §1

human TLR7 = human TLR7 (Homo sapiens (Human), UniProt Q9NYK1); experiment: TLR7 inhibition reporter assay (HEK-Blue, SEAP); conditions: HEK-Blue cells overexpressing human TLR7, gardiquimod 7.5 μM stimulation
Sequence of human TLR7 (Q9NYK1 27-1049): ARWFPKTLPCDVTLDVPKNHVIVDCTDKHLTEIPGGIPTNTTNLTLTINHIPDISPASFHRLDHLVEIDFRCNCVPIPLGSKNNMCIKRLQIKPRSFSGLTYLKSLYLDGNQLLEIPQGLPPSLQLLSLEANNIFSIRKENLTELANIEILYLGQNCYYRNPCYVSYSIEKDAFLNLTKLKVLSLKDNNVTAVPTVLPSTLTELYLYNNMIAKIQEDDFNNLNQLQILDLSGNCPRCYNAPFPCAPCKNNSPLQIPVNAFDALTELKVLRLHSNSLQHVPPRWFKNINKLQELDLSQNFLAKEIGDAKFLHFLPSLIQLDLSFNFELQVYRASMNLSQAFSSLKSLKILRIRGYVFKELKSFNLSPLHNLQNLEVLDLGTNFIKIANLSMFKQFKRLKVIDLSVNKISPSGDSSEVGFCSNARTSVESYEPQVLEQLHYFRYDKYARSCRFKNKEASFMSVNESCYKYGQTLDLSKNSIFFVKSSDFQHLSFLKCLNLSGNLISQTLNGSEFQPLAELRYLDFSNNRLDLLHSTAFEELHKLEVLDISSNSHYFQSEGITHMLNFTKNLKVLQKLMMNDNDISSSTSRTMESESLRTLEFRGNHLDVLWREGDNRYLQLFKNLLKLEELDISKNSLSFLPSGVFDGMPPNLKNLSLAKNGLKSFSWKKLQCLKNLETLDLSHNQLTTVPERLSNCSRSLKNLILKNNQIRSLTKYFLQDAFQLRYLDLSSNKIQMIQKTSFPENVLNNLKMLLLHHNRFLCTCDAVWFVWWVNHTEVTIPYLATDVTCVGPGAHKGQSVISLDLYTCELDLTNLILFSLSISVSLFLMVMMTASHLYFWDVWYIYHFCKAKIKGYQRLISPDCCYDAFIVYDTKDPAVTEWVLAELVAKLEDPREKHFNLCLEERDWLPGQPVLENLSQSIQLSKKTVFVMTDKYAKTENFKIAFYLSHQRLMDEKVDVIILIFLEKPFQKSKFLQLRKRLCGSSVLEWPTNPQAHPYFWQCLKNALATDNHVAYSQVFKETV
Method in brief: as §1

Sequence of human TLR9 (Q9NR96 26-1032): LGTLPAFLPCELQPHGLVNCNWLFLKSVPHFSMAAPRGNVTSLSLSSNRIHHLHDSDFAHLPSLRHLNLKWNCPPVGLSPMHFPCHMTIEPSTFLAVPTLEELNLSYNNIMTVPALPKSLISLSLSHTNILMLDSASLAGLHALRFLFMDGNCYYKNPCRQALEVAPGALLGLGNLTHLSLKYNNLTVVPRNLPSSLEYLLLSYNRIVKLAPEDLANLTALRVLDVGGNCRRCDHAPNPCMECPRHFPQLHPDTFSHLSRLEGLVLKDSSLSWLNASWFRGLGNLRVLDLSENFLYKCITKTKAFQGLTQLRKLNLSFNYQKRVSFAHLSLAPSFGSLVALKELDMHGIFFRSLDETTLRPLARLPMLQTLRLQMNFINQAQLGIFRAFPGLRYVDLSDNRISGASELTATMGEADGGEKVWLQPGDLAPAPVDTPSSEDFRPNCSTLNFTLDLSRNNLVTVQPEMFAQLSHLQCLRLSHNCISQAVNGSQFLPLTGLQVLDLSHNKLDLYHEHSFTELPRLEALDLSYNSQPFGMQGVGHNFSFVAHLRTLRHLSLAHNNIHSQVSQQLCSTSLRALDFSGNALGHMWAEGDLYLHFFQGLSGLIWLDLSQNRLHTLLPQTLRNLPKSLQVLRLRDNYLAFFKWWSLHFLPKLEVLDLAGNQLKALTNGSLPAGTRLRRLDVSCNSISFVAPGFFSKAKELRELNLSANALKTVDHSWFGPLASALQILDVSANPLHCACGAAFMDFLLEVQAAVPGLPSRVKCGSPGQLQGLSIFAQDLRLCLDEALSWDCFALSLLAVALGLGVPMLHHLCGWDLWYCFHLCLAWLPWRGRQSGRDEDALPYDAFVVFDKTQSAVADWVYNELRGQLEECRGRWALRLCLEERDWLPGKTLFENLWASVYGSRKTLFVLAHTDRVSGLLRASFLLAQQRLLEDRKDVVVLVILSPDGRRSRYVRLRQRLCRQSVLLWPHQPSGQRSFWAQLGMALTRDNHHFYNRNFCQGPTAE

| Structure (SMILES) | IC50 (human TLR9) | IC50 (human TLR8) | IC50 (human TLR7) |
| --- | --- | --- | --- |
| Cc1cc(-c2[nH]c3ccc(-c4cc5c(s4)CN(C)CC5)cc3c2C(C)C)cc(C)n1 [Example 361, 2-(2-(2,6-dimethylpyridin-4-yl)-3-isopropyl-1H-indol-5-yl)-6-methyl-4,5,6,7-tetrahydrothieno[2,3-c]pyridine] | 490 nM | 1.5 nM | 6 nM |
| CC(=O)N1CCc2nc(-c3ccc4[nH]c(-c5cc(C)nc(C)c5)c(C(C)C)c4c3)sc2C1 [Example 362, 1-(2-(2-(2,6-dimethylpyridin-4-yl)-3-isopropyl-1H-indol-5-yl)-6,7-dihydrothiazolo[5,4-c]pyridin-5(4H)-yl)ethan-1-one] | > 50000 nM | 9 nM | 6.4 nM |
| Cc1cc(-c2[nH]c3ccc(-c4nc5c(s4)CN(C(=O)CN(C)C)CC5)cc3c2C(C)C)cc(C)n1 [Example 363, 2-(dimethylamino)-1-(2-(2-(2,6-dimethylpyridin-4-yl)-3-isopropyl-1H-indol-5-yl)-6,7-dihydrothiazolo[5,4-c]pyridin-5(4H)-yl)ethan-1-one] | 151 nM | 2.3 nM | 0.8 nM |
| Cc1cc(-c2[nH]c3ccc(-c4nc5c(s4)CN(C(=O)C4CC(=O)N(C)C4)CC5)cc3c2C(C)C)cc(C)n1 (stereo not drawn) [Example 364, 4-(2-(2-(2,6-dimethylpyridin-4-yl)-3-isopropyl-1H-indol-5-yl)-4,5,6,7-tetrahydrothiazolo[5,4-c]pyridine-5-carbonyl)-1-methylpyrrolidin-2-one] | > 50000 nM | 11 nM | 20 nM |
| Cc1cc(-c2[nH]c3ccc(-c4cnc(NC(=O)CN(C)C)cn4)cc3c2C(C)C)ccn1 [Example 365, 2-(dimethylamino)-N-(5-(3-isopropyl-2-(2-methylpyridin-4-yl)-1H-indol-5-yl)pyrazin-2-yl)acetamide] | 1290 nM | 1.6 nM | 7.3 nM |
| Cc1cc(-c2[nH]c3ccc(-c4cc(F)c5nc(C)cn5c4)cc3c2C(C)C)cc(C)n1 [Example 366, 6-(2-(2,6-dimethylpyridin-4-yl)-3-isopropyl-1H-indol-5-yl)-8-fluoro-2-methylimidazo[1,2-a]pyridine] | 11500 nM | 84 nM | 63 nM |
| Cc1cc(-c2[nH]c3ccc(-c4nnc(C5CCN(C)CC5)o4)cc3c2C(C)C)cn2ncnc12 [Example 367, 2-(3-isopropyl-2-(8-methyl-[1,2,4]triazolo[1,5-a]pyridin-6-yl)-1H-indol-5-yl)-5-(1-methylpiperidin-4-yl)-1,3,4-oxadiazole] | 673 nM | 0.6 nM | 0.37 nM |
| COc1ccc(-c2[nH]c3ccc(-c4cccc(N5CCN(C)CC5)c4)cc3c2C(C)C)cc1OC [Example 369, 2-(3,4-dimethoxyphenyl)-3-isopropyl-5-(3-(4-methylpiperazin-1-yl)phenyl)-1H-indole] | 2300 nM | 64 nM | 2110 nM |
| COc1ccc(-c2[nH]c3ccc(-c4cccc(N5CCN(C(C)C)CC5)c4)cc3c2C(C)C)cc1OC [Example 370, 2-(3,4-dimethoxyphenyl)-3-isopropyl-5-(3-(4-isopropylpiperazin-1-yl)phenyl)-1H-indole] | 4840 nM | 93 nM | 3920 nM |
| COc1ccc(-c2[nH]c3ccc(-c4cccc(N5CCN(CC(C)C)CC5)c4)cc3c2C(C)C)cc1OC [Example 371, 2-(3,4-dimethoxyphenyl)-5-(3-(4-isobutylpiperazin-1-yl)phenyl)-3-isopropyl-1H-indole] | 10200 nM | 176 nM | 894 nM |
| COc1ccc(-c2[nH]c3ccc(-c4ccc(-c5cccc(CN6CCN(C)CC6)c5)cc4)cc3c2C(C)C)cc1OC [Example 373, 2-(3,4-dimethoxyphenyl)-3-isopropyl-5-(3′-((4-methylpiperazin-1-yl)methyl)-[1,1′-biphenyl]-4-yl)-1H-indole] | 4360 nM | 20100 nM | 1860 nM |
| COc1ccc(-c2[nH]c3ccc(-c4ccc(-c5cccc(CN(C)C)c5)cc4)cc3c2C(C)C)cc1OC [Example 374, 1-(4′-(2-(3,4-dimethoxyphenyl)-3-isopropyl-1H-indol-5-yl)-[1,1′-biphenyl]-3-yl)-N,N-dimethylmethanamine] | > 50000 nM | 317 nM | 428 nM |
| COc1ccc(-c2[nH]c3ccc(-c4ccc(C5=CCN(C6CCN(CC(C)C)CC6)CC5)cc4)cc3c2C)cc1OC [Example 375, 2-(3,4-dimethoxyphenyl)-5-(4-(1-(1-isobutylpiperidin-4-yl)-1,2,3,6-tetrahydropyridin-4-yl)phenyl)-3-methyl-1H-indole] | 291 nM | 12400 nM | > 50000 nM |
| COc1ccc(-c2[nH]c3ccc(-c4ccc(C5=CCN(C)CC5)cc4)cc3c2C)cc1OC [Example 376, 2-(3,4-dimethoxyphenyl)-3-methyl-5-(4-(1-methyl-1,2,3,6-tetrahydropyridin-4-yl)phenyl)-1H-indole] | 2410 nM | 487 nM | 2880 nM |
| COc1ccc(-c2[nH]c3ccc(-c4ccc(C5=CC(C)(C)NC(C)(C)C5)cc4)cc3c2C(C)C)cc1OC [Example 377, 2-(3,4-dimethoxyphenyl)-3-isopropyl-5-(4-(2,2,6,6-tetramethyl-1,2,3,6-tetrahydropyridin-4-yl)phenyl)-1H-indole] | 4770 nM | 340 nM | 900 nM |
| COc1ccc(-c2[nH]c3ccc(-c4ccc(N5CCCN(CCO)CC5)cc4)cc3c2C(C)C)cc1OC [Example 379, 2-(4-(4-(2-(3,4-dimethoxyphenyl)-3-isopropyl-1H-indol-5-yl)phenyl)-1,4-diazepan-1-yl)ethan-1-ol] | 2950 nM | 71 nM | 692 nM |
| COc1ccc(-c2[nH]c3ccc(-c4ccc(N5CCCN(C)CC5)cc4)cc3c2C(C)C)cc1OC [Example 380, 2-(3,4-dimethoxyphenyl)-3-isopropyl-5-(4-(4-methyl-1,4-diazepan-1-yl)phenyl)-1H-indole] | 2920 nM | 35 nM | 881 nM |
| CCc1c(-c2ccc(OC)c(OC)c2)[nH]c2ccc(-c3ccc(N4CCN(C)CC4)cc3)cc12 [Example 381, 2-(3,4-dimethoxyphenyl)-3-ethyl-5-(4-(4-methylpiperazin-1-yl)phenyl)-1H-indole] | 46600 nM | 22600 nM | 517 nM |
| COc1ccc(-c2[nH]c3ccc(-c4ccc(N5CCN(C(C)C)CC5)cc4)cc3c2C(C)C)cc1OC [Example 382, 2-(3,4-dimethoxyphenyl)-3-isopropyl-5-(4-(4-isopropylpiperazin-1-yl)phenyl)-1H-indole] | 917 nM | 32 nM | 157 nM |
| COc1ccc(-c2[nH]c3ccc(-c4ccc(N5CCN[C@H](C)C5)cc4)cc3c2C(C)C)cc1OC [Example 383, (R)-2-(3,4-dimethoxyphenyl)-3-isopropyl-5-(4-(3-methylpiperazin-1-yl)phenyl)-1H-indole] | 4630 nM | 45 nM | 136 nM |
| CCc1c(-c2ccnc3[nH]ncc23)[nH]c2ccc(-c3ccc(N4CCN(C)CC4)cc3)cc12 [Example 384, 4-(3-ethyl-5-(4-(4-methylpiperazin-1-yl)phenyl)-1H-indol-2-yl)-1H-pyrazolo[3,4-b]pyridine] | 1950 nM | 12 nM | 145 nM |
| COc1ccc(-c2[nH]c3ccc(-c4ccc(NC5CCN(C(C)C)CC5)cc4)cc3c2C(C)C)cc1OC [Example 385, N-(4-(2-(3,4-dimethoxyphenyl)-3-isopropyl-1H-indol-5-yl)phenyl)-1-isopropylpiperidin-4-amine] | 5890 nM | 30 nM | 181 nM |
| COc1ccc(-c2[nH]c3ccc(-c4ccc(NCC5CCN(C)C5)cc4)cc3c2C(C)C)cc1OC (stereo not drawn) [Example 386, 4-(2-(3,4-dimethoxyphenyl)-3-isopropyl-1H-indol-5-yl)-N-((1-methylpyrrolidin-3-yl)methyl)aniline] | 3710 nM | 9.6 nM | 169 nM |
| COc1ccc(-c2[nH]c3ccc(-c4ccc(OC5CCN(C)CC5)cc4)cc3c2C(C)C)cc1OC [Example 387, 2-(3,4-dimethoxyphenyl)-3-isopropyl-5-(4-((1-methylpiperidin-4-yl)oxy)phenyl)-1H-indole] | 3900 nM | 22 nM | 34 nM |
| COc1ccc(-c2[nH]c3ccc(-c4ccc(OC5CCN(CC(C)C)CC5)cc4)cc3c2C(C)C)cc1OC [Example 388, 2-(3,4-dimethoxyphenyl)-5-(4-((1-isobutylpiperidin-4-yl)oxy)phenyl)-3-isopropyl-1H-indole] | > 50000 nM | 349 nM | 636 nM |
| COc1ccc(-c2[nH]c3ccc(-c4ccc(OC5CCN(C(C)C)CC5)cc4)cc3c2C(C)C)cc1OC [Example 389, 2-(3,4-dimethoxyphenyl)-3-isopropyl-5-(4-((1-isopropylpiperidin-4-yl)oxy)phenyl)-1H-indole] | 2360 nM | 126 nM | 338 nM |
| COc1ccc(-c2[nH]c3ccc(-c4ccc(N5CCN(C(C)=O)CC5)nc4)cc3c2C(C)C)cc1OC [Example 390, 1-(4-(5-(2-(3,4-dimethoxyphenyl)-3-isopropyl-1H-indol-5-yl)pyridin-2-yl)piperazin-1-yl)ethan-1-one] | > 50000 nM | 44 nM | 969 nM |
| COc1ccc(-c2[nH]c3ccc(-c4ccc(N5CCN(C)CC5)nc4)cc3c2C(C)C)cc1OC [Example 392, 2-(3,4-dimethoxyphenyl)-3-isopropyl-5-(6-(4-methylpiperazin-1-yl)pyridin-3-yl)-1H-indole] | 1070 nM | 7.5 nM | 32 nM |
